The test system of one data set is ryanodine receptor. As to the kind of experiment: Radioligand binding selectivity panel (Eurofins Cerep). Conditions: 10 μM. As for the experimental part: (§1) Radioligand binding assays were performed at Eurofins Cerep SA (Celle L'Evescault, France), for testing the inhibition capacity of ORM‐11372 (at 10 μM with two replicates), in over 75 targets. These included receptors (e.g., human A1, A2A, and A3 adenosine receptors; α1 and α2 adrenoceptors; human β1–β3 adrenergic receptors; human D1, D2S, D3, D4.4, and D5 dopamine receptors; EGF and VEGF receptors; human M1–M5 muscarinic ACh receptors; human 5‐HT1A, 5‐HT2A, 5‐HT2B, 5‐HT2C, 5‐HT4e, 5‐HT5A, 5‐HT6, and 5‐HT7 receptors), ion channels (5‐HT3, Ca^2+, ATP‐dependent potassium channel [KATP], voltage‐dependent potassium channel [KV], small‐conductance calcium‐dependent potassium channel [SKCa], Na^+, and Cl^−), and transporters (adenosine, noradrenaline, dopamine, and 5‐HT). Follow‐up functional studies (with five concentrations and two replicates) were performed for 5‐HT2A receptors and noradrenaline transporter. Agonism and antagonism at h5‐HT2A receptors was explored in recombinant HEK 293 cells and intracellular calcium changes were detected using fluorimetry. Noradrenaline uptake was measured by carrying out scintillation counting of [^3H]noradrenaline incorporated into rat hypothalamus synaptosomes.

The target of the next data set is 5‐HT2A receptor (Homo sapiens, UniProt P28223). The data set is described as above. Conditions: read-out: inhibition of specific ligand binding. The method, then: as §1
5‐HT2A receptor, sequence (P28223 whole entry): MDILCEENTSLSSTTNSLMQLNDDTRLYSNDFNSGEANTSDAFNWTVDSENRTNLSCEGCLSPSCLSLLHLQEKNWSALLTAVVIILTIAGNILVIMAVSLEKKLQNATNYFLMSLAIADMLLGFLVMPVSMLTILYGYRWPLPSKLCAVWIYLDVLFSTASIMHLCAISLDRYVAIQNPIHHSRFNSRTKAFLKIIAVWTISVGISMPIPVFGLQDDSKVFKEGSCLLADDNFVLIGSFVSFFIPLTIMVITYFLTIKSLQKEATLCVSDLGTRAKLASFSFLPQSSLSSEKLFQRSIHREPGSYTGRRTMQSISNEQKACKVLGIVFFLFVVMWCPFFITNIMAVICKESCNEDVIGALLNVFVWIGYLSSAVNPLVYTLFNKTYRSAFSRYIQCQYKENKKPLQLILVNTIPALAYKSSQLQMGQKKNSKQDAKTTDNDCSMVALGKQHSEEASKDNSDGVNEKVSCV
Another data set concerns the target 5‐HT2B receptor (Homo sapiens, UniProt P41595). Described as above. The conditions noted are these: read-out: inhibition of specific ligand binding. As for the experimental part:
as §1

The target of data set [1] is peripheral benzodiazepine receptor (Rattus norvegicus, UniProt P16257). The description is as above. Conditions: read-out: inhibition of specific ligand binding. As for the experimental part:
as §1

The target of data set [2] is noradrenaline transporter (Homo sapiens, UniProt P23975). The description is as above. Conditions: read-out: inhibition of specific ligand binding. As for the experimental part: as §1
noradrenaline transporter, sequence (P23975 whole entry): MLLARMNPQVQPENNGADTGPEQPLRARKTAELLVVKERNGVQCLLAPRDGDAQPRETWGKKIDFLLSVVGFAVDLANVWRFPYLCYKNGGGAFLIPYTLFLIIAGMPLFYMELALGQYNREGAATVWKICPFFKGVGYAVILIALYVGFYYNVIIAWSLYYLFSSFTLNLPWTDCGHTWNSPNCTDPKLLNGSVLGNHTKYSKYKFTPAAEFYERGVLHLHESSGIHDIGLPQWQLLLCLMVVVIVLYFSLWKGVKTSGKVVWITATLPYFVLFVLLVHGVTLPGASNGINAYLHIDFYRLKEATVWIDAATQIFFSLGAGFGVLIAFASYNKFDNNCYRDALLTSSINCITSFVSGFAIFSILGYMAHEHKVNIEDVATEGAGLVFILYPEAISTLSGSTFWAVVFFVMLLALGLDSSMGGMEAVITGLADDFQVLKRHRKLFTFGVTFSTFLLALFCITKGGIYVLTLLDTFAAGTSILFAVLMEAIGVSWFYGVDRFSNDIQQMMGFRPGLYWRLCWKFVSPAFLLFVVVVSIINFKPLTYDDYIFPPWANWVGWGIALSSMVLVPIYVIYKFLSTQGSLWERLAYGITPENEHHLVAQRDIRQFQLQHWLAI
The next data set relates to Na^+/K^+‐ATPase. The description is as above. The conditions noted are these: 10 μM. As for the experimental part:
as §1

In data set [3] the test system is anaesthetized rats with myocardial infarctions. As to the kind of experiment: Haemodynamics in anaesthetized MI and sham rats. It counts as in vivo. The conditions noted are these: for free plasma concentration: 417 μg·kg^−1·min^−1; for maximal positive inotropic effect (LV + dP/dt max): i.v. infusion 417 μg·kg^−1·min^−1. The source says: Male Sprague–Dawley rats (Harlan, Netherlands B.V.) were housed in polycarbonate cages (Makrolon IV with stainless steel wire mesh lids). A maximum of five rats were housed per cage with aspen chip bedding (Tapvei Ky, Kaavi, Finland). Rats had free access to water (twice filtered, Espoon Vesi) and a rodent diet (SDS RM1 (P) SQC pelleted diet, Special Diet Services Ltd, Witham, England). The acclimation period before experiments was at least 5 days. In the MI model, rats (7–8 weeks, 200–250 g) were randomized into either the MI or sham group. In this weight range, a rat is considered a young adult, when its evolution phase is characterized by slow growth and its surgical mortality is lower than that of older animals. Male rats were used to minimize the variability of the cardiac response to several stimuli (Zornoff, Paiva, Minicucci, & Spadaro, 2009).
Rats were anaesthetized with a combination of ketamine (Ketalar® 50 mg·kg−1, i.p.) and medetomidine (Domitor 250 μg·kg^−1, i.p.), intubated, and artificially ventilated with air (Ugo Basile 7025). An MI was induced by the occlusion of the left coronary artery under aseptic conditions (Levijoki, Pollesello, Kaheinen, & Haikala, 2001; Selye, Bajusz, Grasso, & Mendell, 1960). The left coronary artery was ligated at a distance of about 2–3 mm from the origin of the aorta with a silk suture, and the heart was repositioned into the chest. After ligation, the wound was closed carefully. The muscle layer was closed with soluble stitches and skin layers with insoluble stitches, followed by a partial reversal of anaesthesia via the […] administration of atipamezole (Antisedan® 0.3–1 mg·kg^−1, i.m.). The trachea tube was removed, and the trachea and underlying muscle and skin layers were closed immediately. To prevent dehydration, rats were subcutaneously administered with 5 ml of 0.9% NaCl. After surgery, rats were given analgesia with buprenorphine for at least 2 days (0.05 mg·kg^−1, s.c. twice a day). For sham‐operated rats, the same procedure was performed, without ligation. Rats were analysed for 7 days after the MI, for signs of severe acute heart failure such as oedema or breathing difficulties.
All animals were given multiple ascending infusion doses of ORM‐11372; blinding was not possible. Systemic BP (SP) and left ventricular pressure (LVP) values were measured with pressure transducers (SP for femoral artery: Isotec, Hugo Sachs Elektronic, Germany; a miniature pressure transducer Mikro‐Tip transducer SPR‐249, Millar Instruments was inserted into the left ventricle via the right carotid artery). The signal was amplified (DC‐bridge amplifier type 660, Hugo Sachs Elektronik, Germany), digitized (I/O connector block type SCB‐68, National Instruments, USA), recorded, and analysed (IHME 1.0.9, Fision Ltd, Finland). Left ventricular inotropic effect (LV + dP/dt max), relaxation (LV − dP/dt min), and HR values were analysed from LVP signals.
Haemodynamics were assessed 7 days after the MI (n = 6) or sham operation (n = 6) as follows. Rats were anaesthetized with isoflurane (2.25–2.5%, Baxter) in carbogen (95% O2 and 5% CO2) and nitrous oxide (1:1), using a small rodent ventilator (Ugo Basile 7025, ~10 ml·kg^−1, 60 strokes·min^−1). The rats were infused with 0.9% NaCl in the […] at the stabilization and baseline levels. ORM‐11372 was administered into MI (n = 6) and sham (n = 6) rats in ascending infusion doses of 1.7, 17, 167, and 417 μg·kg^−1·min^−1. Infusions were administered into the jugular vein of MI rats at the infusion rate of 5 ml·kg^−1·h^−1 (Terumo TE‐311, Belgium). Doses were selected based on a pilot study with healthy rats (Figure S20). The total number of animals in the study was 12 + 2, due to the replacement of two MI rats. […]

Some results are limits rather than exact numbers.

5‐HT2B receptor, sequence (P41595 whole entry): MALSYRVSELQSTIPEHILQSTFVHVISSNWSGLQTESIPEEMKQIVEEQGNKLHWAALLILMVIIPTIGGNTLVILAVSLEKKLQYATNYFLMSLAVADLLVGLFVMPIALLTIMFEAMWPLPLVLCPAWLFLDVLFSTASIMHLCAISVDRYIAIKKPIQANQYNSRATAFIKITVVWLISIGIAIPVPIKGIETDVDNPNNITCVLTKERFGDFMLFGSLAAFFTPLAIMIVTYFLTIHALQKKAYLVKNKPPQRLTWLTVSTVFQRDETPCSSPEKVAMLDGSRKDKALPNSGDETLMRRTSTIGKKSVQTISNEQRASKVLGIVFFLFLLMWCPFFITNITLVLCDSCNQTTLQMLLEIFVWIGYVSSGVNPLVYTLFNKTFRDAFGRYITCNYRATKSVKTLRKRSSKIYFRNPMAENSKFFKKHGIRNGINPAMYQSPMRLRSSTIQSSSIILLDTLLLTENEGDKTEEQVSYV

Consider `Nc1cccc(-c2ccc(CNc3ccc(F)cc3)o2)c1` [ORM‐11372], for which the “inhibition of specific ligand binding” value was 15% in the data set with ryanodine receptor and 11% in the data set with Na^+/K^+‐ATPase. For the same compound, the inhibition at 10 µM (at 5‐HT2A receptor; at 5‐HT2B receptor; in data set [1]; in data set [2]) was over 50% each time. Moreover, the improvement of relaxation in data set [3] (MI group, lowest infusion dose 1.7 μg·kg^−1·min^−1) is reported as 24 ± 2%. For the same compound, the “systemic arterial BP” value in data set [3] (MI or sham groups) is listed as “no effect”. Also, the values for the free plasma concentration in data set [3] (MI rats) and in data set [3] (sham rats) were 6.7 ± 2.5 nM and 4.9 ± 0.4 nM, respectively. The “maximal positive inotropic effect (LV + dP/dt max)” value was 18 ± 6% in data set [3] (MI rats) and 31 ± 6% in data set [3] (sham rats).

The values are drawn from publication PMC7707092, “Discovery and characterization of ORM‐11372, a novel inhibitor of the sodium‐calcium exchanger with positive inotropic activity” (British Journal of Pharmacology, 2020).
